Six compounds from ChEMBL document CHEMBL3232998, “Spiromastixones A-O, antibacterial chlorodepsidones from a deep-sea-derived Spiromastix sp. fungus” (J Nat Prod, 2014) can be followed below.

≈ marks a conversion by molar mass, not a printed value.

The subject of assay [1] is Staphylococcus aureus. Kind of assay: Antibacterial activity against Staphylococcus aureus ATCC 29213 after 18 hrs by broth microdilution method. Type of assay: functional. The conditions noted are these: ATCC 29213, 18 h. In general terms: Broth dilution looks for growth in wells or tubes with falling amounts of substance.
Assay [2] deals with Bacillus thuringiensis. Description: Antibacterial activity against Bacillus thuringiensis SCSIO BT01 after 18 hrs by broth microdilution method. The class given is functional. The following applies: SCSIO BT01, 18 h.
Assay [3] deals with Bacillus subtilis. Description: Antibacterial activity against Bacillus subtilis SCSIO BS01 after 18 hrs by broth microdilution method. The class given is functional. The conditions noted are these: SCSIO BS01, 18 h.
The subject of assay [4] is Escherichia coli. Description: Antibacterial activity against Escherichia coli ATCC 25922 after 18 hrs by broth microdilution method. The class given is functional. The conditions noted are these: ATCC 25922, 18 h.
For assay [5], the system named is Staphylococcus aureus. Description: Antibacterial activity against methicillin-sensitive Staphylococcus aureus ATCC 29213 after 18 hrs by broth microdilution method. The class given is functional, organism-based. The following applies: ATCC 29213, 18 h, read-out: IC50.
In assay [6] the test system is Staphylococcus aureus. Kind of assay: Antibacterial activity against methicillin-resistant Staphylococcus aureus ATCC 33591 after 18 hrs by broth microdilution method. The class given is functional, organism-based. The following applies: ATCC 33591, 18 h, read-out: IC50.
Assay [7] concerns Staphylococcus aureus. Kind of assay: Antibacterial activity against methicillin-sensitive Staphylococcus aureus 15 after 18 hrs by broth microdilution method. The class given is functional, organism-based. The conditions noted are these: Staphylococcus aureus, 15, 18 h; read-out: IC50.
Assay [8] concerns Staphylococcus aureus. Kind of assay: Antibacterial activity against methicillin-sensitive Staphylococcus aureus 12-28 after 18 hrs by broth microdilution method. Type of assay: functional, organism-based. The conditions noted are these: 12-28, 18 h.
Assay [9] has as its system Staphylococcus aureus. Description: Antibacterial activity against methicillin-resistant Staphylococcus aureus 12-33 after 18 hrs by broth microdilution method. Type of assay: functional, organism-based. The following applies: 12-33, 18 h, read-out: IC50.
The subject of assay [10] is Staphylococcus epidermidis. Description: Antibacterial activity against methicillin-sensitive Staphylococcus epidermidis ATCC 12228 after 18 hrs by broth microdilution method. Type of assay: functional, organism-based. The conditions noted are these: ATCC 12228, 18 h, read-out: IC50.
Assay [11] concerns Staphylococcus epidermidis. Description: Antibacterial activity against methicillin-sensitive Staphylococcus epidermidis 12-6 after 18 hrs by broth microdilution method. Type of assay: functional, organism-based. The following applies: 12-6, 18 h.
The subject of assay [12] is Staphylococcus epidermidis. Kind of assay: Antibacterial activity against methicillin-resistant Staphylococcus epidermidis 12-8 after 18 hrs by broth microdilution method. The conditions noted are these: 12-8, 18 h, read-out: IC50. Type of assay: functional, organism-based.
In assay [13] the test system is Enterococcus faecalis. Kind of assay: Antibacterial activity against vancomycin-sensitive Enterococcus faecalis ATCC 29212 after 18 hrs by broth microdilution method. Type of assay: functional, organism-based. The conditions noted are these: ATCC 29212, 18 h, read-out: IC50.
In assay [14] the test system is Enterococcus faecalis. Description: Antibacterial activity against vancomycin-resistant Enterococcus faecalis ATCC 51299 after 18 hrs by broth microdilution method. The following applies: ATCC 51299, 18 h, read-out: IC50. Type of assay: functional, organism-based.
In assay [15] the test system is Enterococcus faecalis. Kind of assay: Antibacterial activity against vancomycin-sensitive Enterococcus faecalis 12-5 after 18 hrs by broth microdilution method. The class given is functional, organism-based. The conditions noted are these: 12-5, 18 h, read-out: IC50.
Assay [16] deals with Enterococcus faecalis. Kind of assay: Antibacterial activity against vancomycin-resistant Enterococcus faecalis 09-9 after 18 hrs by broth microdilution method. The class given is functional, organism-based. The following applies: 09-9, 18 h, read-out: IC50.
The subject of assay [17] is Enterococcus faecium. Description: Antibacterial activity against vancomycin-resistant Enterococcus faecium ATCC 700221 after 18 hrs by broth microdilution method. The conditions noted are these: ATCC 700221, 18 h, read-out: IC50. The class given is functional, organism-based.
Assay [18] has as its system Enterococcus faecium. Description: Antibacterial activity against vancomycin-resistant Enterococcus faecium 12-1 after 18 hrs by broth microdilution method. The conditions noted are these: 12-1, 18 h, read-out: IC50. Type of assay: functional, organism-based.
Assay [19] concerns Enterococcus faecium. Kind of assay: Antibacterial activity against vancomycin-sensitive Enterococcus faecium 12-3 after 18 hrs by broth microdilution method. The class given is functional, organism-based. The following applies: 12-3, 18 h, read-out: IC50.
Assay [20] deals with Escherichia coli. Description: Antibacterial activity against extended spectrum beta-lactamase-deficient Escherichia coli ATCC 25922 after 18 hrs by broth microdilution method. The conditions noted are these: ATCC 25922, 18 h, read-out: IC50. The class given is functional, organism-based.
For assay [21], the system named is Escherichia coli. Description: Antibacterial activity against extended spectrum beta-lactamase-deficient Escherichia coli 1515 after 18 hrs by broth microdilution method. The class given is functional, organism-based. The following applies: Escherichia coli, 1515, 18 h.
Assay [22] relates to Escherichia coli. Kind of assay: Antibacterial activity against extended spectrum beta-lactamase-deficient Escherichia coli 12-14 after 18 hrs by broth microdilution method. The conditions noted are these: 12-14, 18 h, read-out: IC50. The class given is functional, organism-based.
The subject of assay [23] is Escherichia coli. Description: Antibacterial activity against extended spectrum beta-lactamase producing Escherichia coli 12-15 after 18 hrs by broth microdilution method. The following applies: 12-15, 18 h, read-out: IC50. The class given is functional, organism-based.
Assay [24] has as its system Klebsiella pneumoniae. Description: Antibacterial activity against extended spectrum beta-lactamase producing Klebsiella pneumoniae ATCC 700603 after 18 hrs by broth microdilution method. Type of assay: functional, organism-based. The following applies: ATCC 700603, 18 h.
In assay [25] the test system is Klebsiella pneumoniae. Description: Antibacterial activity against extended spectrum beta-lactamase-deficient Klebsiella pneumoniae 7 after 18 hrs by broth microdilution method. The class given is functional, organism-based. The following applies: Klebsiella pneumoniae, 7, 18 h; read-out: IC50.
Assay [26] has as its system Klebsiella pneumoniae. Kind of assay: Antibacterial activity against NDM-1 producing Klebsiella pneumoniae ATCC BAA-2146 after 18 hrs by broth microdilution method. Type of assay: functional, organism-based. The conditions noted are these: ATCC BAA-2146, 18 h, read-out: IC50.
For assay [27], the system named is Klebsiella pneumoniae. Description: Antibacterial activity against extended spectrum beta-lactamase-deficient Klebsiella pneumoniae 12-4 after 18 hrs by broth microdilution method. Type of assay: functional, organism-based. The conditions noted are these: 12-4, 18 h.
Assay [28] deals with Klebsiella pneumoniae. Kind of assay: Antibacterial activity against extended spectrum beta-lactamase producing Klebsiella pneumoniae 12-8 after 18 hrs by broth microdilution method. Type of assay: functional, organism-based. The conditions noted are these: 12-8, 18 h, read-out: IC50.

Turning to `CCCc1c(Cl)c(O)cc2c1OC(=O)c1c(CCC)c(Cl)c(O)c(Cl)c1O2`, the MIC in assay [1] was 1 µg/mL (≈ 2.32 µM); in assay [2], 1 µg/mL (≈ 2.32 µM); in assay [3], 0.5 µg/mL (≈ 1.16 µM); in [4], > 128 µg/mL.

For the compound `CCCc1cc(O)cc2c1Oc1c(Cl)c(O)c(Cl)c(CCC)c1C(=O)O2`, the MIC in assay [1] is 4 µg/mL (≈ 10.1 µM); in assay [2], 2 µg/mL (≈ 5.03 µM); in [3], 4 µg/mL (≈ 10.1 µM); in [4], > 128 µg/mL; in assay [5], 64 µM (≈ 25.4 µg/mL); in assay [6] it was 32 µM (≈ 12.7 µg/mL). In addition, the MIC in [7] is 64 µM (≈ 25.4 µg/mL); in assay [9], 128 µM (≈ 50.8 µg/mL); in [10], 32 µM (≈ 12.7 µg/mL); in assay [12], 64 µM (≈ 25.4 µg/mL); in [13] it was > 256 µM; in assay [14] it was > 256 µM. The MIC in assay [15], in [16], in [17], in assay [18], in assay [19] and in assay [20] was > 256 µM throughout. Moreover, the MIC in assay [22], in [23], in [25], in [26] and in assay [28] was > 256 µM each time. In addition, the IC50 is 128 µM in assay [8]; 32 µM in assay [11]; > 256 µM in assay [21]; > 256 µM in [24]; > 256 µM in assay [27].

Regarding `C[C@H]1COc2c(N3CCN(C)CC3)c(F)cc3c(=O)c(C(=O)O)cn1c23` [LEVOFLOXACIN], the MIC in [5] was determined as 0.25 µM (≈ 0.0903 µg/mL); in [6], 0.25 µM (≈ 0.0903 µg/mL); in assay [7], 0.125 µM (≈ 0.0452 µg/mL); in assay [9], 64 µM (≈ 23.1 µg/mL); in [10] it was 0.25 µM (≈ 0.0903 µg/mL); in [12] it was 4 µM (≈ 1.45 µg/mL). The MIC in [13] was 1 µM (≈ 0.361 µg/mL); in assay [14], 1 µM (≈ 0.361 µg/mL); in assay [15], 1 µM (≈ 0.361 µg/mL); in assay [16], > 128 µM; in assay [17] it was 64 µM (≈ 23.1 µg/mL); in assay [18], 64 µM (≈ 23.1 µg/mL). Further, the MIC was 64 µM (≈ 23.1 µg/mL) in assay [19]; ≤ 0.03 µM in assay [20]; 1 µM (≈ 0.361 µg/mL) in assay [22]; 32 µM (≈ 11.6 µg/mL) in [23]; 0.25 µM (≈ 0.0903 µg/mL) in assay [25]; > 128 µM in assay [26]. The MIC in [28] was 16 µM (≈ 5.78 µg/mL). In addition, the IC50 in assay [8] was 0.25 µM; in assay [11], 0.25 µM; in assay [21] it was 0.125 µM; in [24], 1 µM; in assay [27] it was 0.125 µM.

As to `CCCc1cc(O)cc2c1Oc1cc(O)c(Cl)c(CCC)c1C(=O)O2`, the MIC in [1] is 8 µg/mL (≈ 22.1 µM); in assay [2], 4 µg/mL (≈ 11 µM); in assay [3], 8 µg/mL (≈ 22.1 µM); in assay [4] it was > 128 µg/mL.

Take `CCCc1cc(O)c(Cl)c2c1C(=O)Oc1cc(O)c(Cl)c(CCC)c1O2`: the MIC in assay [1] was 2 µg/mL (≈ 5.03 µM); in assay [2], 2 µg/mL (≈ 5.03 µM); in assay [3], 2 µg/mL (≈ 5.03 µM); in assay [4], > 128 µg/mL.

Turning to `CCCc1c(Cl)c(O)cc2c1Oc1c(Cl)c(O)c(Cl)c(CCC)c1C(=O)O2`, the MIC in assay [1] is 2 µg/mL (≈ 4.63 µM); in [2], 1 µg/mL (≈ 2.32 µM); in assay [3], 0.5 µg/mL (≈ 1.16 µM); in assay [4] it was > 128 µg/mL; in assay [5] it was 4 µM (≈ 1.73 µg/mL); in assay [6], 4 µM (≈ 1.73 µg/mL). The MIC in assay [7] came out at 4 µM (≈ 1.73 µg/mL); in assay [9], 4 µM (≈ 1.73 µg/mL); in assay [10] it was 2 µM (≈ 0.863 µg/mL); in assay [12] it was 4 µM (≈ 1.73 µg/mL); in assay [13], 32 µM (≈ 13.8 µg/mL); in assay [14], 32 µM (≈ 13.8 µg/mL). The MIC in assay [15] was 32 µM (≈ 13.8 µg/mL); in assay [16], 32 µM (≈ 13.8 µg/mL); in assay [17], 32 µM (≈ 13.8 µg/mL); in assay [18], 16 µM (≈ 6.91 µg/mL); in [19], 32 µM (≈ 13.8 µg/mL); in assay [20], > 256 µM. In addition, the MIC in assay [22], in [23], in assay [25], in assay [26] and in [28] was > 256 µM in each case. In addition, the IC50 in assay [8] was 4 µM; in assay [11], 4 µM; in assay [21], > 256 µM; in [24], > 256 µM; in assay [27], > 256 µM.

As usually defined, the IC50 is the concentration that inhibits the measured activity by half. Higher therefore signals lower potency.
